# According to ChEMBL document CHEMBL4428125, “8-Substituted 1,3-dimethyltetrahydropyrazino[2,1-f]purinediones: Water-soluble adenosine receptor antagonists and monoamine oxidase B inhibitors” (Bioorg Med Chem, 2016):
# The source made the active and inactive calls. The calls are words filed in the database; no cut-off is given here.
# Experiments:
# Adenosine receptor A2a [1] = molecular target: T1, Adenosine receptor A2a (Homo sapiens, UniProt P29274); assay: Agonist activity at recombinant human A2A receptor expressed in CHO cells assessed as increase in forskolin-induced cAMP level at 10 uM preincubated for 20 mins prior to forskolin-stimulation measure after 5 mins by liquid scintillation counting method; format: functional, cell-based
# T1 sequence (P29274 whole entry): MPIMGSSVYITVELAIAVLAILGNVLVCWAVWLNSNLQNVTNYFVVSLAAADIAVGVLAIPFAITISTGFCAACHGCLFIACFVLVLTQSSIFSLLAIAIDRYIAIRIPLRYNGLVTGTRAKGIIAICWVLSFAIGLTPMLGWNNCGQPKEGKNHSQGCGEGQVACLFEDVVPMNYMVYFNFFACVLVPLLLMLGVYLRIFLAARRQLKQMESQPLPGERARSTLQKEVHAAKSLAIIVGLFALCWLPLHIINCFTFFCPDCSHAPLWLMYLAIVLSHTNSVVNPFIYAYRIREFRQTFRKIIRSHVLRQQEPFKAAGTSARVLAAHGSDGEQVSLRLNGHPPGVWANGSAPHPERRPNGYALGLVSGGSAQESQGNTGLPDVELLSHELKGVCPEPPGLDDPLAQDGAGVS
# Adenosine receptor A3 = molecular target: T2, Adenosine receptor A3 (Homo sapiens, UniProt P0DMS8); assay: Displacement of [3H]PSB-11 from human A3 receptor expressed in CHO cell membrane by liquid scintillation counting method relative to control; format: cell membranes
# T2 sequence (P0DMS8 whole entry): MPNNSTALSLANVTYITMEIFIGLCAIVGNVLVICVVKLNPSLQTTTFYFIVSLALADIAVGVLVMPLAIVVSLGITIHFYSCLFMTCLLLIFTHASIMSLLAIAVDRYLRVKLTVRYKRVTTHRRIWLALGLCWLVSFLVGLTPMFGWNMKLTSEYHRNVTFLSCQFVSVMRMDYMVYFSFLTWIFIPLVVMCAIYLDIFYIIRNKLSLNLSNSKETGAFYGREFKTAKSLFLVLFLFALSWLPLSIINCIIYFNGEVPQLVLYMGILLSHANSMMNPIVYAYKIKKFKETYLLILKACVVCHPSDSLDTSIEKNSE
# Adenosine receptor A2a [2] = molecular target: T1, Adenosine receptor A2a; assay: Agonist activity at recombinant human A2A receptor expressed in CHO cells assessed as increase in forskolin-induced cAMP level at 1 uM preincubated for 20 mins prior to forskolin-stimulation measure after 5 mins by liquid scintillation counting method; format: functional, cell-based
# [3] = molecular target: T3, Adenosine receptor A1 (Homo sapiens) (UniProt P30542); assay: Agonist activity at recombinant human A1 receptor expressed in CHO cells assessed as inhibition of forskolin-induced cAMP accumulation at 10 uM preincubated for 20 mins prior to forskolin-stimulation measure after 5 mins by liquid scintillation counting method; format: functional, cell-based
# T3 sequence (whole entry): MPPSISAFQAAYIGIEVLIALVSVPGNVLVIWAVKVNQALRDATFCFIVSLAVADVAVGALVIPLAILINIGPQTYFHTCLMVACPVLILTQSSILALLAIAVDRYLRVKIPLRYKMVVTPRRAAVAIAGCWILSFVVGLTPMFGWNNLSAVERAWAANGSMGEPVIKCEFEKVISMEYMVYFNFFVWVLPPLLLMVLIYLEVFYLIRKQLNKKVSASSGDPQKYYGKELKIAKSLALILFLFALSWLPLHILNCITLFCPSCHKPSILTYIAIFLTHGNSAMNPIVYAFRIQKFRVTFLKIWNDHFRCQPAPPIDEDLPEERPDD
# Adenosine receptor A2b [4] = molecular target: T4, Adenosine receptor A2b (Homo sapiens, UniProt P29275); assay: Displacement of [3H]PSB-603 from human A2B receptor expressed in CHO cell membrane; format: cell membranes
# T4 sequence (P29275 whole entry): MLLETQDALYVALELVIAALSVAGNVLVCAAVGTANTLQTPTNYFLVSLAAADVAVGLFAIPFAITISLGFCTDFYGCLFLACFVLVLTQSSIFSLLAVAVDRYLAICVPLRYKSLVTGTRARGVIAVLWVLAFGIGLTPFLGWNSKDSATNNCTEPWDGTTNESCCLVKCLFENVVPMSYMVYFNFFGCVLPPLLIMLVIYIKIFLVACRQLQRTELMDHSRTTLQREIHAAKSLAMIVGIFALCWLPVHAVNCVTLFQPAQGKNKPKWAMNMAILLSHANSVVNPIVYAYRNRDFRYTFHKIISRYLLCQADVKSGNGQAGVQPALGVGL
# [5] = molecular target: T5, Amine oxidase [flavin-containing] B (Homo sapiens, UniProt P27338); assay: Inhibition of recombinant human MAO-B expressed in baculovirus infected BTI insect cells at 10 uM preincubated for 30 mins followed by addition of p-tyramine as substrate measured over 45 mins by Amplex Red MAO assay relative to control; conditions: 0.75 h
# T5 sequence (P27338 whole entry): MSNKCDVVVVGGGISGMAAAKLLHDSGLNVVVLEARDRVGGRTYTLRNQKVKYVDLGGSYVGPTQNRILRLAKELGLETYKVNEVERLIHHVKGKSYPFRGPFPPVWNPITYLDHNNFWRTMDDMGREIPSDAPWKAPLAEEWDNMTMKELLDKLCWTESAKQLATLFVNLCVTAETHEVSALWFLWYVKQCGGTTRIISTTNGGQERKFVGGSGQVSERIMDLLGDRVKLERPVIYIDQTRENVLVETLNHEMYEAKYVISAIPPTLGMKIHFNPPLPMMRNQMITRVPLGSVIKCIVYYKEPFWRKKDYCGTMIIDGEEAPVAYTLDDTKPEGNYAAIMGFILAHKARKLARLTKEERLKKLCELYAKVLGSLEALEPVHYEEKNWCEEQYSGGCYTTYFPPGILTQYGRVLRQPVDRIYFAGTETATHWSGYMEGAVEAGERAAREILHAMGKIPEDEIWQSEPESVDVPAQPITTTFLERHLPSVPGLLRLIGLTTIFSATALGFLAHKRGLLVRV
# [6] = molecular target: T3, Adenosine receptor A1 (Homo sapiens); assay: Agonist activity at recombinant human A1 receptor expressed in CHO cells assessed as inhibition of forskolin-induced cAMP accumulation at 1 uM preincubated for 20 mins prior to forskolin-stimulation measure after 5 mins by liquid scintillation counting method; format: functional, cell-based
# Adenosine receptor A2a [7] = molecular target: Adenosine receptor A2a (Rattus norvegicus, UniProt P30543); assay: Displacement of [3H]MSX from A2A receptor in rat brain striatum membranes measured after 30 mins by liquid scintillation counting method; format: cell membranes
# Sequence of Adenosine receptor A2a (Rattus norvegicus, UniProt P30543) (P30543 whole entry): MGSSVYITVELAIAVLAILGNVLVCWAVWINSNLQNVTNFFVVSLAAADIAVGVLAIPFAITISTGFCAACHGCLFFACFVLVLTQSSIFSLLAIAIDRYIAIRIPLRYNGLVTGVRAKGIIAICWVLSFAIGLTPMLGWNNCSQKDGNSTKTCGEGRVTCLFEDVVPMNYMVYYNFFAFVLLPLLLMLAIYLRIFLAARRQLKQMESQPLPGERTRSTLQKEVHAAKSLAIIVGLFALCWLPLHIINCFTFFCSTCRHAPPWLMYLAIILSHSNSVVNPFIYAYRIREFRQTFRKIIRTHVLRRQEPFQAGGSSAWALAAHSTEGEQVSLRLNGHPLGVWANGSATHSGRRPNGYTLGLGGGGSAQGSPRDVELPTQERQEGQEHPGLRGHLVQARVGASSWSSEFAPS
# [8] = molecular target: T5, Amine oxidase [flavin-containing] B; assay: Inhibition of recombinant human MAO-B expressed in baculovirus infected BTI insect cells preincubated for 30 mins followed by addition of p-tyramine as substrate measured over 45 mins by Amplex Red MAO assay
# [9] = molecular target: T6, Adenosine receptor A2b (Homo sapiens) (UniProt P29275); assay: Displacement of [3H]PSB-603 from human A2B receptor expressed in CHO cell membrane at 1 uM relative to control; format: cell membranes
# T6 sequence (whole entry): T4 sequence (P29275 whole entry)
# Adenosine receptor A1 [10] = molecular target: T7, Adenosine receptor A1 (Rattus norvegicus, UniProt P25099); assay: Displacement of [3H]CCPA from A1 receptor in rat brain cortex membranes by liquid scintillation counting method; format: cell membranes
# T7 sequence (P25099 whole entry): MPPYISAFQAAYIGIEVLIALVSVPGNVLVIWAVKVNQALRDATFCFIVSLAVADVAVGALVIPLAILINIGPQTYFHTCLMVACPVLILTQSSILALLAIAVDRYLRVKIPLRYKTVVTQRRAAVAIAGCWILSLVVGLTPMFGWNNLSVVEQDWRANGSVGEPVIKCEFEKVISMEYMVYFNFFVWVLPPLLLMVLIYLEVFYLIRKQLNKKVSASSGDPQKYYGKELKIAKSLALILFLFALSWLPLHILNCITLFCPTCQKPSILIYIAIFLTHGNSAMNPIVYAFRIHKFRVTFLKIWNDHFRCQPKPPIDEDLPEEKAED
# [11] = Thermodynamic solubility of the compound at pH 4; format: physicochemical; conditions: buffer, read-out: Therm_solubility
# Adenosine receptor A2a [12] = molecular target: T1, Adenosine receptor A2a; assay: Displacement of [3H]MSX from human A2A receptor measured after 30 mins by liquid scintillation counting method
# Adenosine receptor A1 [13] = molecular target: T8, Adenosine receptor A1 (Homo sapiens, UniProt P30542); assay: Displacement of [3H]CCPA from human A1 receptor expressed in CHO cell membrane by liquid scintillation counting method; format: cell membranes
# T8 sequence (P30542 whole entry): T3 sequence (whole entry)
# [14] = Thermodynamic solubility of the compound at pH 7.4; format: physicochemical; conditions: buffer, read-out: Therm_solubility
# [15] = Thermodynamic solubility of the compound at pH 1; format: physicochemical; conditions: buffer, read-out: Therm_solubility
# [16] = molecular target: T9, Adenosine receptor A1 (Rattus norvegicus) (UniProt P25099); assay: Displacement of [3H]CCPA from A1 receptor in rat brain cortex membranes at 1.5 uM by liquid scintillation counting method; format: cell membranes
# T9 sequence (whole entry): T7 sequence (P25099 whole entry)
# [17] = molecular target: Adenosine receptor A2a (Rattus norvegicus) (UniProt P30543); assay: Displacement of [3H]MSX from A2A receptor in rat brain striatum membranes at 1 uM measured after 30 mins by liquid scintillation counting method relative to control; format: cell membranes
# Sequence of Adenosine receptor A2a (Rattus norvegicus) (P30543 whole entry): as the sequence (P30543 whole entry) above
# [18] = molecular target: T10, Adenosine receptor A3 (Homo sapiens) (UniProt P0DMS8); assay: Displacement of [3H]PSB-11 from human A3 receptor expressed in CHO cell membrane at 1 uM by liquid scintillation counting method relative to control relative to control; format: cell membranes
# T10 sequence (whole entry): T2 sequence (P0DMS8 whole entry)
# Adenosine receptor A1 [19] = molecular target: T7, Adenosine receptor A1; assay: Displacement of [3H]MSX from rat A1 receptor measured after 75 mins by liquid scintillation counting method
# [20] = molecular target: T6, Adenosine receptor A2b (Homo sapiens); assay: Displacement of [3H]PSB-603 from human A2B receptor expressed in CHO cell membrane measured after 75 mins by liquid scintillation counting method relative to control; format: cell membranes
# [21] = molecular target: T11, Amine oxidase [flavin-containing] A (Homo sapiens, UniProt P21397); assay: Inhibition of recombinant human MAO-A expressed in baculovirus infected BTI insect cells at 10 uM preincubated for 30 mins followed by addition of p-tyramine as substrate measured over 45 mins by Amplex Red MAO assay relative to control; conditions: 0.75 h
# T11 sequence (P21397 whole entry): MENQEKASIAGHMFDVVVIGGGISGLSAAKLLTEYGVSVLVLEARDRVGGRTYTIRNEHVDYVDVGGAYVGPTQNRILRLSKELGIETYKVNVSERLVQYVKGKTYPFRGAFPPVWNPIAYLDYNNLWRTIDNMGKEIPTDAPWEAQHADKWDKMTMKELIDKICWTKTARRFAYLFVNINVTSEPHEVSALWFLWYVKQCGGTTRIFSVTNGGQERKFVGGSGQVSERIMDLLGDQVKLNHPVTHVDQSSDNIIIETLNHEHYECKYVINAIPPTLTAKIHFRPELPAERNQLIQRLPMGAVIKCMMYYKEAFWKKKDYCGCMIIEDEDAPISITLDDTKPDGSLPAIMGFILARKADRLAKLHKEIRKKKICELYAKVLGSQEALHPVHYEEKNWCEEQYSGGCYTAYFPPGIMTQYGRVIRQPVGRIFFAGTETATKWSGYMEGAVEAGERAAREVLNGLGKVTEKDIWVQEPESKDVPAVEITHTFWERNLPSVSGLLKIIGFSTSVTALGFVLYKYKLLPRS
# Adenosine receptor A1 [22] = molecular target: T7, Adenosine receptor A1; assay: Displacement of [3H]CCPA from rat A1 receptor by liquid scintillation counting method
# [23] = molecular target: T11, Amine oxidase [flavin-containing] A; assay: Inhibition of recombinant human MAO-A expressed in baculovirus infected BTI insect cells preincubated for 30 mins followed by addition of p-tyramine as substrate measured over 45 mins by Amplex Red MAO assay
# Adenosine receptor A2b [24] = molecular target: T4, Adenosine receptor A2b; assay: Displacement of [3H]PSB-603 from human A2B receptor expressed in CHO cell membrane measured after 75 mins by liquid scintillation counting method; format: cell membranes
# Adenosine receptor A2a [25] = molecular target: T1, Adenosine receptor A2a; assay: Displacement of [3H]MSX from human A2A receptor by liquid scintillation counting method
Compound,Ki (Adenosine receptor A3) [µM],Ki (Adenosine receptor A2b [4]) [µM],inhibition at 10 µM [5] [%],Ki (Adenosine receptor A2a [7]) [µM],IC50 [8] [µM],Activity [9] [%],Ki (Adenosine receptor A1 [10]) [µM],Ki (Adenosine receptor A1 [13]) [µM],Activity [16] [%],Activity [18] [%],other results
Cn1c(=O)c2c(nc3n2CCN(Cc2csc(-c4ccc(C(F)(F)F)cc4)n2)C3)n(C)c1=O,7.49,> 1,54,0.355,10,25,0.157,0.236,,,Activity (Adenosine receptor A2a [1]): inactive; Activity (Adenosine receptor A2a [2]): inactive; Activity [3]: inactive; Activity [6]: inactive; solubility thermodynamic [11]: < 0.5 µg/mL; Ki (Adenosine receptor A2a [12]): 0.217 µM; solubility thermodynamic [14]: < 0.5 µg/mL; solubility thermodynamic [15]: 200 µg/mL
Cn1c(=O)c2c(nc3n2CCN(c2ccc(Cl)cc2)C3)n(C)c1=O,> 1,> 1,15,> 10,> 10,9,> 1.5,,1,2,Activity [17]: 34%
Cn1c(=O)c2c(nc3n2CCN(Cc2ccc(Cl)c(Cl)c2)C3)n(C)c1=O,> 1,,,,0.197,,,0.791,,13,Ki (Adenosine receptor A1 [19]): 0.322 µM; Activity [20]: 15%; inhibition at 10 µM [21]: 5%; Ki (Adenosine receptor A1 [22]): 0.351 µM; IC50 [23]: > 10 µM; Ki (Adenosine receptor A2b [24]): > 1 µM; Ki (Adenosine receptor A2a [25]): 1.51 µM
Cn1c(=O)c2c(nc3n2CCN(c2ccc(Br)cc2)C3)n(C)c1=O,> 1,> 1,,3.9,0.132,11,> 1.5,,15,2,
